The values that follow come from US20250163032A1, “NOVEL MOLECULES AS INHIBITORS OF DNA DAMAGE REPAIR PATHWAY” (VRise Therapeutics, Inc., priority 2023, published 2025).

Molecules are shown by their SMILES.

One data set deals with NCI-H1792. In words: Cell viability assay (MTT assay), NCI-H1792. It counts as cell-based. Particulars: Homo sapiens, tested at 10 uM, 168 hours (Test-3). The protocol: Test-3: Cell Viability Assay (MTT Assay):
Cell viability assay was carried out using 10% FBS supplemented media. Cells were seeded at desired density in 96 well plate and incubated in a humidified CO2 incubator. After 24 hours of plating, test compounds at desired concentration range were added to the plates and incubated in the CO2 incubator for 168 hours. Post 168 hrs treatment, 12.5 μL of MTT was added to all wells including DMSO control. MTT treated plates were incubated further for 3 hours and MTT crystals were dissolved using 125 μL of DMSO. Absorbance was read on a BIO-RAD iMark Microplate plate reader at a wavelength of 570 nm. Data was analysed and percent inhibition (IC50) due to the test compound compared to the control was calculated using GraphPad Prism.
Background: Tetrazolium dyes change colour on reduction, which living cells bring about.

A further data set addresses USP1/UAF1 (Homo sapiens, UniProt O94782). In words: USP1/UAF 1 assay (ubiquitin-rhodamine110 fluorometric deubiquitinase assay). It counts as biochemical. Particulars: for IC50: 1 nM USP1/UAF1, 150 nM Ub-Rho, read-out: Biochemical assay IC50.
The test system of another data set is MD-MBA-436. Kind of data set: Cell viability assay (CTG assay). Particulars: Homo sapiens, 7th day. It counts as cell-based, human. The method, then: Test 5: Cell Viability Assay (CTG Assay):
Growth inhibition assays was carried out using […] supplemented media. Cells were seeded at a desired concentration of 1000-6,000 cells/well in a well plate with desired number of wells. Test compounds at a desired concentration range were added after 24 hours. Growth was assessed using the Cell Titer-Glo (CTG, Cell Signaling) for measuring reduction at 7th day after the addition of test compound chemiluminescence values were read by a plate reader. Data was be analysed and percent inhibition and/or IC50 for each test compound is calculated accordingly.

Data set [1] in a line: Metabolic stability, mouse liver microsomes. Particulars: pH 7.4, 1 μM test item, 1 mM NADPH, 60 minutes. It counts as in vitro ADME. The method, then:
(§1) Test-8: Metabolic Stability
(§2) Metabolic stability studies were conducted using mouse, rat, and human liver microsomes. The protocol for the studies with mouse and human liver microsomes (Gibco-Thermo) is provided below.
(§3) In brief, 0.25 mg protein was preincubated in phosphate buffer (pH˜7.4) for 5 min at 37° C. and then added with 1 μM test item followed by addition of 1 mM NADPH (cof actor) and incubated further over a period 60 minutes in duplicate. The reaction mixture was terminated with acetonitrile containing an internal standard and centrifuged further to analyse the test item remaining in the supernatant by LC-MS/MS at different intervals. The percent parent compound remaining was calculated in comparison with similar samples terminated at 0 minutes.
In general terms: Liver microsomes are vesicles of endoplasmic reticulum, rich in cytochrome P450 enzymes.

Data set [2] can be described thus: Metabolic stability, human liver microsomes. It counts as in vitro ADME. Particulars: pH 7.4, 1 μM test item, 1 mM NADPH, 60 minutes. The method, then: as §1, §2, §3

A word on the inhibition: it is how much of the control response was suppressed. One may read the IC50 as the concentration that gives 50% inhibition. As usually defined, the half-life is how long it takes for the measured level to halve. Read a low half-life as fast loss.

Chain of USP1/UAF1 (O94782 whole entry): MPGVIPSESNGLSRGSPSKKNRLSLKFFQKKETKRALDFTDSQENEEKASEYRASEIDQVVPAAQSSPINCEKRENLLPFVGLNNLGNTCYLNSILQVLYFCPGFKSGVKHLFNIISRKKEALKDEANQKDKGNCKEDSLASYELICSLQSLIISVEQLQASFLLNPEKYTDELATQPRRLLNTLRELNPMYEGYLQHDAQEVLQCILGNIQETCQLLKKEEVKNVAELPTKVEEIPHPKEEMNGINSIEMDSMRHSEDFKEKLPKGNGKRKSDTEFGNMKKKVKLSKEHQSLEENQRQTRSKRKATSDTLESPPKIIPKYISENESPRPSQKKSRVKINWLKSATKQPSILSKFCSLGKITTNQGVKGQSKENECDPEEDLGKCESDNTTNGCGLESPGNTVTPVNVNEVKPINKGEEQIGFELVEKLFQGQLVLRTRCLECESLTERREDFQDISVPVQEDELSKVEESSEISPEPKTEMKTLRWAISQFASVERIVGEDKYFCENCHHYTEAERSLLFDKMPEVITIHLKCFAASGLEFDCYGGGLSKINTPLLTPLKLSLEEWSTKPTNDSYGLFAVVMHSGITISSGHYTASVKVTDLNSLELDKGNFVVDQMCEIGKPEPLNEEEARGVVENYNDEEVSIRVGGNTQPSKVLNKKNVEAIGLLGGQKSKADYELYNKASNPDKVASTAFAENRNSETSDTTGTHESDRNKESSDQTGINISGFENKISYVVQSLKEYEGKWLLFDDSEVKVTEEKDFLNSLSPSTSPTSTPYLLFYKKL
Chain of USP1/UAF1 (Q8TAF3 whole entry partner): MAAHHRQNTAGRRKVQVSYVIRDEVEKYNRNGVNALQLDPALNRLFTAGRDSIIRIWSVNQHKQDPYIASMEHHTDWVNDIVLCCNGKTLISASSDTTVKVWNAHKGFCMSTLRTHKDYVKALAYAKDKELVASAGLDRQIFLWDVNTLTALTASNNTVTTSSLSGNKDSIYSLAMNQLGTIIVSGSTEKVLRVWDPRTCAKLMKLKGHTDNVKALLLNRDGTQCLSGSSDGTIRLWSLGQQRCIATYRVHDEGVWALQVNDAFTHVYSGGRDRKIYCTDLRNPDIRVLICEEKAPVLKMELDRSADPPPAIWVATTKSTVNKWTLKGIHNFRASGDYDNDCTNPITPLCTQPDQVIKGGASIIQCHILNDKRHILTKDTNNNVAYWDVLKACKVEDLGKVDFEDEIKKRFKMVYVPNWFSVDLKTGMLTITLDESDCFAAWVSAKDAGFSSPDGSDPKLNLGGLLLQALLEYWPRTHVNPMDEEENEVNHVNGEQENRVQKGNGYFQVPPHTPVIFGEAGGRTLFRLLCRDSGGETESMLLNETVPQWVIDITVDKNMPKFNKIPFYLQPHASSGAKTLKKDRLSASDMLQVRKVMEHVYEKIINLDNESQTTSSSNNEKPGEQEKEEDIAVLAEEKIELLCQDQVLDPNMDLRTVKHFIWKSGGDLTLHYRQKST

`COc1ncccc1-c1nc(NCc2ccc(-c3nc(C(F)(F)F)cn3C)cc2)c2ncn(C3CCCCO3)c2n1` (stereo not drawn) [Example 31, 2-(2-methoxypyridin-3-yl)-N-(4-(1-methyl-4-(trifluoromethyl)-1H-imidazol-2-yl)benzyl)-9-(tetrahydro-2H-pyran-2-yl)-9H-purin-6-amine] gave an inhibition at 10 µM in the data set with NCI-H1792 of 25 to 50%.

In the data set on NCI-H1792, `COc1ccncc1-c1nc(NCc2ccc(-c3nc(C(F)(F)F)cn3C)cc2)c2ncn(C3CCCCO3)c2n1` (stereo not drawn) [Example 33, 2-(4-methoxypyridin-3-yl)-N-(4-(1-methyl-4-(trifluoromethyl)-1H-imidazol-2-yl)benzyl)-9-(tetrahydro-2H-pyran-2-yl)-9H-purin-6-amine] displayed an inhibition at 10 µM of 50 to 75%.

`COc1ncnc(C2CC2)c1-c1nc(NCc2ccc(-c3nc(C(F)(F)F)cn3C)cc2)c2cccn2n1` [Example 6, 2-(4-cyclopropyl-6-methoxypyrimidin-5-yl)-N-(4-(1-methyl-4-(trifluoromethyl)-1H-imidazol-2-yl)benzyl)pyrrolo[2,1-f][1,2,4]triazin-4-amine]: the IC50 on USP1/UAF1 and in the data set with MD-MBA-436 was < 0.05 µM throughout. For the same molecule, the inhibition at 10 µM in the data set on NCI-H1792 fell in the range of 50 to 75%. Also, the half-life at 1 μM in data set [1] is ≥ 30 min; in data set [2], ≥ 300 min.

With `CC(C)c1ccccc1-c1nc(NCc2ccc(-c3nc(C(F)(F)F)cn3C)cc2)c2c(c1C#N)CCC2` [Example 4, 3-(2-isopropylphenyl)-1-((4-(1-methyl-4-(trifluoromethyl)-1H-imidazol-2-yl)benzyl)amino)-6,7-dihydro-5H-cyclopenta[c]pyridine-4-carbonitrile], the IC50 at USP1/UAF1 is 0.05 to 0.1 µM; in the data set with MD-MBA-436, ≥ 1 µM. Also, the half-life at 1 μM in data set [1] stood at 7.71 min; in data set [2], 7.13 min.

With `COc1ncnc(C2CC2)c1-c1nc(NCc2ccc(-c3nc(C(F)(F)F)cn3C)cc2)c2[nH]cnc2n1` [Example 16, 2-(4-cyclopropyl-6-methoxypyrimidin-5-yl)-N-(4-(1-methyl-4-(trifluoromethyl)-1H-imidazol-2-yl)benzyl)-7H-purin-6-amine], the half-inhibitory concentration (IC50) on USP1/UAF1 lay in the range of 0.05 to 0.1 µM. This molecule also came in with an inhibition at 10 µM in the data set on MD-MBA-436 of 50 to 75%. The half-life at 1 μM in data set [1] was ≥ 230 min; in data set [2] it was ≥ 700 min.

Consider `COc1ncnc(C2CC2)c1-c1nc2c(c(NCc3ccc(-c4nc(C(F)(F)F)cn4C(C)C)cc3)n1)CCC2` [Example 10, 2-(4-cyclopropyl-6-methoxypyrimidin-5-yl)-N-(4-(1-isopropyl-4-(trifluoromethyl)-1H-imidazol-2-yl)benzyl)-6,7-dihydro-5H-cyclopenta[d]pyrimidin-4-amine], for which the IC50 at USP1/UAF1 and in the data set with MD-MBA-436 was < 0.05 µM each time. For the same molecule, the half-life at 1 μM in data set [1] amounted to 47 min; in data set [2] it was 134 min.

`COc1ncnc(C2CC2)c1-c1nc(NCc2ccc(-c3ccc(F)cn3)cc2)c2[nH]cnc2n1` [Example 77, 2-(4-cyclopropyl-6-methoxypyrimidin-5-yl)-N-(4-(5-fluoropyridin-2-yl)benzyl)-7H-purin-6-amine] showed an inhibition at 10 µM in the data set with NCI-H1792 of 50 to 75%.

With `COc1ncnc(C2CC2)c1-c1nc(NCc2ccc(-c3cccnc3)cc2)c2[nH]cnc2n1` [Example 76, 2-(4-cyclopropyl-6-methoxypyrimidin-5-yl)-N-(4-(pyridin-3-yl)benzyl)-7H-purin-6-amine], in the data set on NCI-H1792, the inhibition at 10 µM was 25 to 50%. For the same molecule, the half-life at 1 μM in data set [1] came to 10.1 min.

Consider `COc1ncnc(C2CC2)c1-c1nc2c(c(N(Cc3ccc(-c4nc(C(F)(F)F)cn4C)cc3)C(N)=O)n1)CCC2` [Example 12, 1-(2-(4-cyclopropyl-6-methoxypyrimidin-5-yl)-6,7-dihydro-5H-cyclopenta[d]pyrimidin-4-yl)-1-(4-(1-methyl-4-(trifluoromethyl)-1H-imidazol-2-yl)benzyl)urea], for which, on USP1/UAF1 (read-out: Biochemical assay % inhibition @1 μM), the inhibition at 1 µM is > 75%. This molecule returned an inhibition at 10 µM with MD-MBA-436 of 50 to 75%. Further, the half-life at 1 μM is 40.2 min in data set [1] and 9 min in data set [2].

Take `COc1ncccc1-c1nc(NCc2ccc(-c3nc(C(F)(F)F)cn3C)cc2)c2[nH]cnc2n1` [Example 32, 2-(2-methoxypyridin-3-yl)-N-(4-(1-methyl-4-(trifluoromethyl)-1H-imidazol-2-yl)benzyl)-7H-purin-6-amine]: the inhibition at 10 µM is > 75% at USP1/UAF1 (read-out: Biochemical assay % inhibition @10 μM) and 50 to 75% in the data set on NCI-H1792.

`COc1ncnc(C2CC2)c1-c1nc2c(c(NCc3ccc(-c4nc(C(F)(F)F)cn4C)cc3)n1)CCC2` [Example 1, 2-(4-cyclopropyl-6-methoxypyrimidin-5-yl)-N-(4-(1-methyl-4-(trifluoromethyl)-1H-imidazol-2-yl)benzyl)-6,7-dihydro-5H-cyclopenta[d]pyrimidin-4-amine]: the IC50 at USP1/UAF1 was 0.05 to 0.1 µM; with MD-MBA-436 it was < 0.05 µM. The molecule further came in with an inhibition at 10 µM in the data set on NCI-H1792 of 25 to 50%. The values for the half-life at 1 μM in data set [1] and in data set [2] were 89.6 min and 108 min, respectively.
